Experiment [1] deals with Glycine max. Put plainly: Inhibition of soybean 15-LOX assessed as Vmax for substrate using linoleic acid as substrate by Lineweaver-Burk plot analysis.
Experiment [2] in a line: Inhibition of soybean 15-LOX using linoleic acid as substrate. The arrangement: species or system Glycine max.
Experiment [3] in a line: Competitive inhibition of soybean 15-LOX using linoleic acid as substrate by Lineweaver-Burk plot analysis. The arrangement: species or system Glycine max.
The subject of experiment [4] is Glycine max. Put plainly: Inhibition of soybean 15-LOX assessed as Km for substrate using linoleic acid as substrate by Lineweaver-Burk plot analysis.
Experiment [5] concerns Glycine max. Kind of experiment: Inhibition of soybean 15-LOX at 10 uM using linoleic acid as substrate relative to control.
The nature of experiment [6]: Antioxidant activity assessed as ferric ion reducing activity by measuring Fe2+ levels using Fe3+-TPTZ after 40 mins by FRAP assay. The format is functional.
Experiment [7] relates to Glycine max. Put plainly: Potency index, ratio of 4-methyl-2-(4-methylpiperazinyl)-pyrimido[4,5b]benzothiazine IC50 to compound IC50 for soybean 15-LOX.
Experiment [8] is described as follows: Antioxidant activity assessed as cupric ion reducing activity after 30 mins by CUPRAC assay. It counts as functional.
The target in experiment [9] is T1, Polyunsaturated fatty acid lipoxygenase ALOX15 (Homo sapiens, UniProt P16050).
T1 sequence (P16050 whole entry): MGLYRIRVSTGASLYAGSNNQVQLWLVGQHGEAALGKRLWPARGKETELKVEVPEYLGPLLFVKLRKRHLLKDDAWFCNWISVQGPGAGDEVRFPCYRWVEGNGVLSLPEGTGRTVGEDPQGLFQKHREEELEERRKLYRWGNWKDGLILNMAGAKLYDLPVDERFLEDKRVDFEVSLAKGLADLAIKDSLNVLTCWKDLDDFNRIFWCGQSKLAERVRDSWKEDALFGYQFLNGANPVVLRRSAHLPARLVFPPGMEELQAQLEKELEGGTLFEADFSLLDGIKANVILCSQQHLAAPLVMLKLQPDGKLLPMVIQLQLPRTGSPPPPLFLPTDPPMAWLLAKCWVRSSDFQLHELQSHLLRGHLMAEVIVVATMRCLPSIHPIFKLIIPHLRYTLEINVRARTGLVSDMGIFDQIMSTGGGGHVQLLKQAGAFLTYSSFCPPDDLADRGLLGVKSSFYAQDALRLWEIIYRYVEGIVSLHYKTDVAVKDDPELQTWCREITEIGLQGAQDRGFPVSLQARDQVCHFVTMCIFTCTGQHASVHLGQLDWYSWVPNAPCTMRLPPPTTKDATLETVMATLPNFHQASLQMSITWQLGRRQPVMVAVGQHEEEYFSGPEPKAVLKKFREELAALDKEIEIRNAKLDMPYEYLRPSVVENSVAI
Kind of experiment: Inhibition of 15-LOX in human primary polymorphonuclear leukocytes.

The target of experiment [10] is T1, Polyunsaturated fatty acid lipoxygenase ALOX15. Kind of experiment: Inhibition of thapsigargin-stimulated 15-LOX in human primary polymorphonuclear leukocytes using arachidonic acid as substrate preincubated for 5 mins followed by thapsigargin stimulation for 5 mins by RP-HPLC method.

pIC50, pKi: −log10 of the molar value. Active and inactive are the calls of the source. The rule behind the calls is not given here.

In the case of `N#Cc1ccc(/N=N/C(=O)c2ccccc2)cc1`, the Vmax (usually the top rate of the reaction or transport when substrate is in excess) in the experiment with Glycine max [1] worked out at 0.57 µM/s. In experiment [2], the negative-log IC50 (pIC50) (usually the IC50 on a negative log10 scale, so that one unit is a factor of ten) is 5.01. In addition, in experiment [3], the negative logarithm of the Ki (pKi) – broadly, the Ki on a negative log10 scale, so that one unit is a factor of ten – is 5.41. For the same compound, in the experiment with Glycine max [4], the Km (as a rule, the substrate concentration at which the rate is half of its maximum) is 140 µM. For the same compound, in the experiment with Glycine max [5], the inhibition (in general, how much of the control response was suppressed) was determined as 80%.
With `O=C(NNc1ccc(Br)cc1)c1ccccc1`, the result in experiment [6] was Active. In the experiment on Glycine max [5], this compound came in with an inhibition of 28%.
`Cc1ccc(NNC(=O)c2ccccc2)cc1`: the result in [6] was Active. The maximal velocity (Vmax) in the experiment on Glycine max [1] stood at 0.46 µM/s. In [2], the negative logarithm of the IC50 (pIC50) was 5.27. The compound also gave a pKi in experiment [3] of 6.09. Further, the Michaelis constant (Km) with Glycine max [4] amounted to 89.6 µM. The compound further returned an inhibition in the experiment on Glycine max [5] of 93%. The Ratio IC50 in the experiment on Glycine max [7] stood at 3.4.
Consider `O=C(NNc1ccccc1)c1ccccc1`, for which the outcome in experiment [6] and in experiment [8] was Active. Besides, the inhibition in the experiment on Glycine max [5] was 33%.
`N#Cc1ccc(NNC(=O)c2ccccc2)cc1` showed an inhibition in the experiment with Glycine max [5] of 9%.
In turn, `NS(=O)(=O)c1ccc(NNC(=O)c2ccccc2)cc1` came in with an inhibition with Glycine max [5] of 10%.
On the same count and under the same terms, the value for `O=C(/N=N/c1ccc([N+](=O)[O-])cc1)c1ccccc1` was 34%.
For the compound `COc1ccc(NNC(=O)c2ccccc2)cc1`, the result in experiment [6] was Active. The same compound yielded an inhibition in the experiment with Glycine max [5] of 73%.
The compound `CC(c1cc2ccccc2s1)N(O)C(N)=O` (stereo not given) [ZILEUTON] gave a negative-log IC50 (pIC50) in [9] of 6.40.
The compound `O=C(NNc1ccc([N+](=O)[O-])cc1)c1ccccc1` registered an inhibition in the experiment on Glycine max [5] of 17%.
In experiment [2], `O=C(/N=N/c1ccccc1)c1ccccc1` showed a pIC50 of 5.16. In the experiment with Glycine max [5], this compound registered an inhibition of 87%.
`Cc1ccc(/N=N/C(=O)c2ccccc2)cc1` registered an inhibition in the experiment on Glycine max [5] of 44%.
Same read-out and setting: under `COc1ccc(/N=N/C(=O)c2ccccc2)cc1` stands 19%.
As for `O=C(/C=C/c1ccc(O)c(O)c1)OCCc1ccccc1` [CAFFEIC ACID PHENETHYL ESTER], the pIC50 in [10] was 6.89.
With `O=C(/N=N/c1ccc(Br)cc1)c1ccccc1`, in the experiment on Glycine max [5], the inhibition was found to be 44%.

For the origin of these results see ChEMBL document CHEMBL4007503, “Easy and rapid preparation of benzoylhydrazides and their diazene derivatives as inhibitors of 15-lipoxygenase” (Bioorg Med Chem Lett, 2017).
